Test results from US9474790B2, “Stable, protracted GLP-1/glucagon receptor co-agonists for medical use” (Novo Nordisk A/S, priority 2013, dated 2016).
pIC50: −log10 of the molar value. Numbered stars: 1 amine (or outer) side, 2 acyl side, 3 side chain; on linkers, the order of the positions; unused ones are H or OH. Square brackets hold non-standard residues; d marks the D form. Side chains are listed from the residue outwards. Peptide text beside a SMILES is read from it. * marks the point of attachment. C18 diacid = O=C(O)CCCCCCCCCCCCCCCCC(=O)*; γGlu = O=C(O)[C@H](CCC(=O)[*:2])N[*:1]; AEEA = NCCOCCOCC(=O)O; Aib = CC(C)(N)C(=O)O

Experiments:
human GLP-1 receptor = biological target: T1, human GLP-1 receptor (Homo sapiens, UniProt P43220); assay: GLP-1 receptor binding, 125I-GLP-1 displacement SPA on isolated membranes; conditions: displacement of 125I-GLP-1 from membranes; read-out: IC50 GLP-1R
T1 construct: expressed in transfected cells; host or cells: BHK cells (parent BHKTS13), clone FCW467-12A/KZ10-1, with CRE luciferase
Protocol: The purpose of this assay was to test the in vitro receptor binding activity of the glucagon derivatives of the invention. The receptor binding is a measure of affinity of a compound for the human GLP-1 receptor.
The receptor binding of each compound to the human GLP-1 receptor was measured in a displacement binding assay. In this type of assay a labelled ligand (in this case 125I-GLP-1) is bound to the receptor. Each derivative was added in a series of concentrations to isolated membranes containing the human GLP-1 receptor and displacement of the labelled ligand was monitored. The receptor binding was reported as the concentration at which half of the labelled ligand was displaced from the receptor, the IC50 value.
In order to test the binding of the derivatives to albumin, the assay may be performed in a very low concentration of serum albumin (max. 0.001% final assay concentration) as well as in the presence of a higher concentration of serum albumin (2.0% final assay concentration). An increase of the IC50 value, in the presence of serum albumin indicates an affinity to serum albumin and represents a method to predict a protracted pharmacokinetic profile of the test substance in animal models.
The following chemicals were used in the assay: DMEM w/o phenol red (Gibco 11880-028), Pen/strep (Invitrogen 15140-122), G418 (Invitrogen 10131-027), 1 M Hepes (Gibco 15630), EDTA (Invitrogen 15575-038), PBS (Invitrogen 14190-094), fetal calf serum (Invitrogen 16140-071), EGTA, MgCl2 (Merck 1.05832.1000), Tween 20 (Amresco 0850C335), SPA particles (wheat germ agglutinin (WGA) SPA beads, Perkin Elmer RPNQ0001), [125I]-GLP-1]-(7-36)NH2 (produced in-house), OptiPlate™-96 (Perkin Elmer).
Buffer 1 consisted of 20 mM Na-HEPES plus 10 mM EDTA and pH was adjusted to 7.4.
Buffer 2 consisted of 20 mM Na-HEPES plus 0.1 mM EDTA and pH was adjusted to 7.4.
Assay buffer consisted of 50 mM HEPES supplemented with 5 mM EGTA, 5 mM MgCl2, 0.005% Tween 20 and pH was adjusted to 7.4.
The cells used in this assay (clone FCW467-12A) were BHK cells with BHKTS13 as a parent cell line. The cells express the human GLP-1 receptor.
The cells were grown at 5% CO2 in DMEM, 10% fetal calf serum, 1% Pen/Strep (Penicillin/Streptomycin) and 1.0 mg/ml of the selection marker G418. To make a membrane preparation the cells were grown to approximately 80% confluence. The cells were washed twice in phosphate-buffered saline and harvested. The cells were pelleted using a brief centrifugation and the cell pellet was kept on ice. The cell pellet was homogenised with ULTRA-THURRAX dispersing instrument for 20-30 sec in a suitable amount of buffer 1 (e.g. 10 ml). The homogenate was centrifuged for 15 min. The pellet was re-suspended (homogenised) in 10 ml buffer 2 and centrifuged. This step was repeated once more. The resulting pellet was re-suspended in buffer 2 and the protein concentration was determined. The membranes were aliquoted and stored at minus 80° C.
1. For the receptor binding assay, 50 μl of the assay buffer was added to each well of an assay plate.
2. Test compounds were serially diluted to give the following concentrations: 8×10EE-7 M, 8×10EE-8 M, 8×10EE-9 M, 8×10EE-10 M, 8×10EE-11 M, 8×10EE-12 M and 8×10EE-13 M. Twenty-five μl were added to appropriate wells in the assay plate.
3. Cell membrane aliquots were thawed and diluted to their working concentration. Fifty μl were added to each well in the assay plate.
4. WGA SPA beads were suspended in assay buffer at 20 mg/ml. The suspension was diluted to 10 mg/ml in assay buffer just prior to addition to the assay plate. Fifty μl were added to each well in the assay plate.
5. The incubation was started by adding 25 μl of 480 pM solution of [125I]-GLP-1]-(7-36)NH2 to each well of the assay plate. A 25 μl aliquot was reserved for measuring total counts/well.
6. The assay plate was incubated for 2 h at 30° C.
7. The assay plate was centrifuged for 10 min.
8. The assay plate was read in a Perkin Elmer TopCount NXT instrument. […]

[1] = Thioflavin T (ThT) fibrillation assay for physical stability; format: physicochemical; conditions: 250 μM in 10 mM HEPES buffer, pH 7.5, 37° C., shaking 960 rpm
Text: The purpose of this assay was to assess the physical stability of the glucagon derivatives of the invention in aqueous solutions.
Low physical stability of a peptide may lead to amyloid fibril formation, which is observed as well-ordered, thread-like macromolecular structures in the sample, which eventually may lead to gel formation. This has traditionally been measured by visual inspection of the sample. However, that kind of measurement is very subjective and depending on the observer. Therefore, the application of a small molecule indicator probe is much more advantageous. Thioflavin T (ThT) is such a probe and has a distinct fluorescence signature when binding to fibrils [Naiki et al; Anal. Biochem. 1989 177 244-249; LeVine; Methods. Enzymol. 1999 309 274-284].
The time course for fibril formation can be described by a sigmoidal curve with the following expression [Nielsen et al; Biochemistry 2001 40 6036-6046]:
Here, as depicted in FIG. 1, F is the ThT fluorescence at the time t. The constant t0 is the time needed to reach 50% of maximum fluorescence. The two important parameters describing fibril formation are the lag-time calculated by t0−2τ and the apparent rate constant kapp 1/τ.
Samples were prepared freshly before each assay. Each sample composition is described in the legends. The pH of the sample was adjusted to the desired value using appropriate amounts of concentrated NaOH and HCl. Thioflavin T was added to the samples from a stock solution in H2O to a final concentration of 1 μM.
Sample aliquots of 200 μl (250 μM of the glucagon derivative/analogue in 10 mM HEPES buffer, pH 7.5) were placed in a 96 well microtiter plate (Packard OptiPlate™-96, white polystyrene). Usually, four or eight replica of each sample (corresponding to one test condition) were placed in one column of wells. The plate was sealed with Scotch Pad (Qiagen).
Incubation at given temperature, shaking and measurement of the ThT fluorescence emission were done in a Fluoroskan Ascent FL fluorescence plate reader (Thermo Labsystems). The temperature was set to 37° C. and the plate was incubated with orbital shaking adjusted to 960 rpm with an amplitude of 1 mm. Fluorescence measurement was done using excitation through a 444 nm filter and measurement of emission through a 485 nm filter.
Each run was initiated by incubating the plate at the assay temperature for 10 min. The plate was measured every 20 minutes for a desired period of time. Between each measurement, the plate was shaken and heated as described.
After completion of the ThT assay the four or eight replica of each sample was pooled and centrifuged at 20000 rpm for 30 minutes at 18° C. The supernatant was filtered through a 0.22 μm filter and an aliquot was transferred to a HPLC vial.
The concentration of peptide in the initial sample and in the filtered supernatant was determined by reverse phase HPLC using an appropriate standard as reference. The percentage fraction the concentration of the filtered sample constituted of the initial sample concentration was reported as the recovery.
The measurement points were saved in Microsoft Excel format for further processing and curve drawing and fitting was performed using GraphPad Prism. The background emission from ThT in the absence of fibrils was negligible. The data points were typically a mean of four or eight samples.
The data set may be fitted to Eq. (1).

T1 sequence (P43220 24-463): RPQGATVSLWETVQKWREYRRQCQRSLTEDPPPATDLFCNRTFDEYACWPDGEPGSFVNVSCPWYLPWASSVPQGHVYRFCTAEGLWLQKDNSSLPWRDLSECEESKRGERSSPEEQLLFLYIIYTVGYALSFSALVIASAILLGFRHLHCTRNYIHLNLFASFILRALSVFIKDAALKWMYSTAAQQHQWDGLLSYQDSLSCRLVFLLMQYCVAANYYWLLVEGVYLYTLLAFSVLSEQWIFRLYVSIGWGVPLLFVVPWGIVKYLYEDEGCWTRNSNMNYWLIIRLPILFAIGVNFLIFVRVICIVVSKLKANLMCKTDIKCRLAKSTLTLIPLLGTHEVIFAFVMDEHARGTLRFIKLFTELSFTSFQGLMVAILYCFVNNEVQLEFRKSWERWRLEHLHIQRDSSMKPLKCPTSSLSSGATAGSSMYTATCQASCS

SMILES | pIC50 (human GLP-1 receptor) | THT assay Lag time (Ex. 76) [1] [h]
CC(C)C[C@H](NC(=O)[C@H](Cc1ccc(O)cc1)NC(=O)[C@H](CCCCN)NC(=O)[C@H](CO)NC(=O)[C@@H](NC(=O)[C@H](CC(=O)O)NC(=O)[C@H](CO)NC(=O)[C@@H](NC(=O)[C@H](Cc1ccccc1)NC(=O)[C@@H](NC(=O)CNC(=O)[C@H](CCC(N)=O)NC(=O)C(C)(C)NC(=O)[C@@H](N)Cc1c[nH]cn1)[C@@H](C)O)[C@@H](C)O)C(C)C)C(=O)N[C@@H](CC(=O)O)C(=O)N[C@@H](C)C(=O)N[C@@H](CCCNC(=N)N)C(=O)N[C@@H](CCCNC(=N)N)C(=O)N[C@@H](C)C(=O)N[C@@H](CCC(N)=O)C(=O)N[C@@H](CC(=O)O)C(=O)N[C@@H](Cc1ccccc1)C(=O)N[C@H](C(=O)N[C@@H](CCC(N)=O)C(=O)N[C@@H](Cc1c[nH]c2ccccc12)C(=O)N[C@@H](CC(C)C)C(=O)N[C@@H](CC(C)C)C(=O)N[C@@H](CCCCNC(=O)COCCOCCNC(=O)COCCOCCNC(=O)CC[C@H](NC(=O)CC[C@H](NC(=O)CC[C@H](NC(=O)CCCCCCCCCCCCCCCCC(=O)O)C(=O)O)C(=O)O)C(=O)O)C(=O)N[C@H](C(N)=O)[C@@H](C)O)C(C)C [Example 70, N^ε28-[2-[2-[2-[[2-[2-[2-[[(4S)-4-carboxy-4-[[(4S)-4-carboxy-4-[[(4S)-4-carboxy-4-(17-carboxyheptadecanoylamino)butanoyl]amino]butanoyl]amino]butanoyl]amino]ethoxy]ethoxy]acetyl]amino]ethoxy]ethoxy]acetyl]-[Aib2,Val10,Ala16,Leu27,Lys28]-Glucagon amide] (H-H[Aib]QGTFTSDVSKYLDARRAQDFVQWLLK([AEEA-AEEA-γGlu-γGlu-γGlu-C18 diacid])T-NH2) | 9.70 | 
CC(C)C[C@H](NC(=O)[C@H](Cc1ccc(O)cc1)NC(=O)[C@H](CCCCN)NC(=O)[C@H](CO)NC(=O)[C@H](CC(C)C)NC(=O)[C@H](CC(=O)O)NC(=O)[C@H](CO)NC(=O)[C@@H](NC(=O)[C@H](Cc1ccccc1)NC(=O)[C@@H](NC(=O)CNC(=O)[C@H](CCC(N)=O)NC(=O)C(C)(C)NC(=O)[C@@H](N)Cc1c[nH]cn1)[C@@H](C)O)[C@@H](C)O)C(=O)N[C@@H](CC(=O)O)C(=O)N[C@@H](C)C(=O)N[C@@H](CCCNC(=N)N)C(=O)N[C@@H](CCCNC(=N)N)C(=O)N[C@@H](C)C(=O)N[C@@H](CCCNC(=N)N)C(=O)N[C@@H](CC(=O)O)C(=O)N[C@@H](Cc1ccccc1)C(=O)N[C@H](C(=O)N[C@@H](CCC(N)=O)C(=O)N[C@@H](Cc1c[nH]c2ccccc12)C(=O)N[C@@H](CC(C)C)C(=O)N[C@@H](CC(C)C)C(=O)N[C@@H](CCCCNC(=O)COCCOCCNC(=O)COCCOCCNC(=O)CC[C@H](NC(=O)CC[C@H](NC(=O)CC[C@H](NC(=O)CCCCCCCCCCCCCCCCC(=O)O)C(=O)O)C(=O)O)C(=O)O)C(=O)N[C@H](C(N)=O)[C@@H](C)O)C(C)C [Example 58, N^ε28-[2-[2-[2-[[2-[2-[2-[[(4S)-4-carboxy-4-[[(4S)-4-carboxy-4-[[(4S)-4-carboxy-4-(17-carboxyheptadecanoylamino)butanoyl]amino]butanoyl]amino]butanoyl]amino]ethoxy]ethoxy]acetyl]amino]ethoxy]ethoxy]acetyl]-[Aib2,Leu10,Ala16,Arg20,Leu27,Lys28]-Glucagon amide] (H-H[Aib]QGTFTSDLSKYLDARRARDFVQWLLK([AEEA-AEEA-γGlu-γGlu-γGlu-C18 diacid])T-NH2; N-terminus assumed) | 9.70 | 
CC(C)C[C@H](NC(=O)[C@H](Cc1c[nH]c2ccccc12)NC(=O)[C@H](C)NC(=O)[C@@H](NC(=O)[C@H](Cc1ccccc1)NC(=O)[C@H](CCC(=O)O)NC(=O)[C@H](CCCNC(=N)N)NC(=O)[C@H](C)NC(=O)[C@H](CCCNC(=N)N)NC(=O)[C@H](CCCNC(=N)N)NC(=O)[C@H](CCCCNC(=O)CC[C@H](NC(=O)COCCOCCNC(=O)COCCOCCNC(=O)CC[C@H](NC(=O)CC[C@H](NC(=O)CCCCCCCCCCCCCCCCC(=O)O)C(=O)O)C(=O)O)C(=O)O)NC(=O)[C@H](CCC(=O)O)NC(=O)[C@H](CC(C)C)NC(=O)[C@H](Cc1ccc(O)cc1)NC(=O)[C@H](CCCCN)NC(=O)[C@H](CO)NC(=O)[C@H](CC(C)C)NC(=O)[C@H](CC(=O)O)NC(=O)[C@H](CO)NC(=O)[C@@H](NC(=O)[C@H](Cc1ccccc1)NC(=O)[C@@H](NC(=O)CNC(=O)[C@H](Cc1c[nH]cn1)NC(=O)C(C)(C)NC(=O)[C@@H](N)Cc1c[nH]cn1)[C@@H](C)O)[C@@H](C)O)C(C)C)C(=O)N[C@@H](CC(C)C)C(=O)N[C@@H](CO)C(=O)N[C@H](C(N)=O)[C@@H](C)O [Example 32, N^ε16-[(4S)-4-carboxy-4-[[2-[2-[2-[[2-[2-[2-[[(4S)-4-carboxy-4-[[(4S)-4-carboxy-4-(17-carboxyheptadecanoylamino)butanoyl]amino]butanoyl]amino]ethoxy]ethoxy]acetyl]amino]ethoxy]ethoxy]acetyl]amino]butanoyl]-[Aib2,His3,Leu10,Glu15,Lys16,Arg20,Glu21,Ala24, Leu27,Ser28]-Glucagon amide] (H-H[Aib]HGTFTSDLSKYLEK([γGlu-AEEA-AEEA-γGlu-γGlu-C18 diacid])RRAREFVAWLLST-NH2; N-terminus assumed) |  | 45
